Non-standard residues stand in square brackets, D forms with d. Residues, ends and D or L forms follow the SMILES beside them. *: point of attachment. Phe(4-Br) = N[C@@H](Cc1ccc(Br)cc1)C(=O)O; PEG7 = NCCOCCOCCOCCOCCOCCOCCOCCC(=O)O; Fmoc = O=C(OCC1c2ccccc2-c2ccccc21)*; NMeL = CN[C@@H](CC(C)C)C(=O)O; Nle = CCCC[C@H](N)C(=O)O; Cbz = O=C(OCc1ccccc1)*; Aib = CC(C)(N)C(=O)O
Assays:
[1] = Half life in human plasma at 400 uM by HPLC analysis; type: ADME, cell-free
Apelin receptor [2] = biological target: T1, Apelin receptor (Homo sapiens, UniProt P35414); assay: Activation of APJ receptor (unknown origin) expressed in Chem-5 cells assessed as stimulation of Ca2+ mobilization by Calcium 6-GF dye based fluorescence based assay; type: functional, cell-based
T1 sequence (P35414 whole entry): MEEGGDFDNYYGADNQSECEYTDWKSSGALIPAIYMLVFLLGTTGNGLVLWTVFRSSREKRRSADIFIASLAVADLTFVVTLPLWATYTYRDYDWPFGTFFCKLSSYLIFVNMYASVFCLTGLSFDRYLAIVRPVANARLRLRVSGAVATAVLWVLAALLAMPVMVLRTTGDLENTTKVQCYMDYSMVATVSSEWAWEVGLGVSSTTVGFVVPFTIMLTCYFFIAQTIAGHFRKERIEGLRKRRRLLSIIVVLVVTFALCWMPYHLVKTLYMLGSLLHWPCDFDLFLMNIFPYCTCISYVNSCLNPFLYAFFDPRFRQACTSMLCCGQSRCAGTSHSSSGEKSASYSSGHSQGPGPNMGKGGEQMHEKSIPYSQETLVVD

Apelin receptor [3] = biological target: T2, Apelin receptor (Rattus norvegicus, UniProt Q9JHG3); assay: Displacement of [125I]-pyr-1-apelin-13 from EGFP-tagged wild-type rat apelin receptor expressed in CHO cell membranes by gamma counting method; set-up: species or system Cell membrane
T2 sequence (Q9JHG3 whole entry): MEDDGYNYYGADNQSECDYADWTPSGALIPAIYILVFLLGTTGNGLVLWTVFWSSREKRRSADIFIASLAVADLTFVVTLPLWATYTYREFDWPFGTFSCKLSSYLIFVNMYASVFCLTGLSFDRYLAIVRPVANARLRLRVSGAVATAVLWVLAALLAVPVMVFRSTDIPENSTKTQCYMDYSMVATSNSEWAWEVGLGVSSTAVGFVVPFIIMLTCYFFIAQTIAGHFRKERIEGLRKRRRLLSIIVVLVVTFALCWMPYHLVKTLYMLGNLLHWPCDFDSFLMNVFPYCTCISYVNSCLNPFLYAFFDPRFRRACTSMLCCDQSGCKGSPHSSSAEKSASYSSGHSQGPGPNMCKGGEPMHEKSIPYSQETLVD

Mus musculus = assay: Cardioprotective activity in C57BL/6 mouse assessed as reduction in mean arterial blood pressure at 1.4 uM/kg, iv measured after 15 mins relative to control; type: functional; settings: 0.25 h
[4] = Protein binding in 55% human plasma at 100 uM incubated for 3 hrs by LC/MS detection based equilibrium dialysis; type: ADME, cell-free; settings: 55% plasma, read-out: PPB (converted)
[5] = Protein binding in 55% mouse plasma at 100 uM incubated for 3 hrs by LC/MS detection based equilibrium dialysis; type: ADME, cell-free; settings: 55% plasma, read-out: PPB (converted)
[6] = Lipophilicity, log D of the compound in pH 7.4 PBS by LC/MS detection based shake flask assay; type: physicochemical
[7] = Half life in mouse plasma at 400 uM by HPLC analysis; type: ADME, cell-free
Heart [8] = assay: Cardioprotective activity in mouse Langendorff heart perfusion and ischemia-reperfusion injury model assessed as left ventricle developed pressure at 1 uM dosed at start of reperfusion for 10 mins; type: functional
Heart [9] = assay: Cardioprotective activity in mouse Langendorff heart perfusion and ischemia-reperfusion injury model assessed as maximum derivative of change in systolic blood pressure over time at 1 uM dosed at start of reperfusion for 10 mins; type: functional

| half-life at 400 µM [1] [h] | EC50 (Apelin receptor [2]) [nM] | IC50 (Apelin receptor [3]) [nM] | fraction unbound at 3 h, 100 µM [4] | fraction unbound at 3 h, 100 µM [5] | logD [6] | half-life at 400 µM [7] [h] | Compound | Activity (Mus musculus) [mmHg] | Activity (Heart [8]) [mmHg] | dP/dt max (Heart [9]) [mmHg/s] |
| --- | --- | --- | --- | --- | --- | --- | --- | --- | --- | --- |
| 3 | 2.88 | 1.7 | 0.21 | 0.31 | -1.82 | – | CCCC[C@H](NC(=O)[C@@H]1CCCN1C(=O)CNC(=O)[C@H](CCCCN)NC(=O)[C@H](Cc1c[nH]cn1)NC(=O)[C@H](CO)NC(=O)[C@H](CC(C)C)N(C)C(=O)[C@H](CCCNC(=N)N)NC(=O)[C@@H]1CCCN1C(=O)[C@H](CCCNC(=N)N)NC(=O)[C@H](CCC(N)=O)NC(=O)[C@H](CCCNC(=N)N)NC(=O)[C@H](CCCNC(=N)N)NC(=O)[C@H](Cc1ccccc1)NC(=O)[C@H](CCCCN)NC(=O)CCOCCOCCOCCOCCOCCOCCOCCN)C(=O)NC(C)(C)C(=O)N[C@@H](Cc1ccc(Br)cc1)C(=O)O (H-[PEG7]KFRRQRPR[NMeL]SHKGP[Nle][Aib][Phe(4-Br)]-OH) | 35 | – | – |
| 1.2 | – | 0.603 | 0.48 | 0.45 | -2.01 | 0.9 | CCCC[C@H](NC(=O)[C@@H]1CCCN1C(=O)CNC(=O)[C@H](CCCCN)NC(=O)[C@H](Cc1c[nH]cn1)NC(=O)[C@H](CO)NC(=O)[C@H](CC(C)C)N(C)C(=O)[C@H](CCCNC(=N)N)NC(=O)[C@@H]1CCCN1C(=O)[C@H](CCCNC(=N)N)NC(=O)[C@H](CCC(N)=O)NC(=O)[C@H](CCCNC(=N)N)NC(=O)[C@H](CCCNC(=N)N)NC(=O)[C@H](Cc1ccccc1)NC(=O)[C@@H](N)CCCCN)C(=O)NC(C)(C)C(=O)N[C@@H](Cc1ccc(Br)cc1)C(=O)O (H-KFRRQRPR[NMeL]SHKGP[Nle][Aib][Phe(4-Br)]-OH) | 30 | 25 | 778 |
| 18.2 | 6.17 | 1.91 | 0.15 | 0.17 | -1.54 | 2.9 | CCCC[C@H](NC(=O)[C@@H]1CCCN1C(=O)CNC(=O)[C@H](CCCCN)NC(=O)[C@H](Cc1c[nH]cn1)NC(=O)[C@H](CO)NC(=O)[C@H](CC(C)C)N(C)C(=O)[C@H](CCCNC(=N)N)NC(=O)[C@@H]1CCCN1C(=O)[C@H](CCCNC(=N)N)NC(=O)[C@H](CCC(N)=O)NC(=O)[C@H](CCCNC(=N)N)NC(=O)[C@H](CCCNC(=N)N)NC(=O)[C@H](Cc1ccccc1)NC(=O)[C@H](CCCCN)NC(=O)CCOCCOCCOCCOCCOCCOCCOCCNC(=O)OCc1ccccc1)C(=O)NC(C)(C)C(=O)N[C@@H](Cc1ccc(Br)cc1)C(=O)O ({Cbz-PEG7}-KFRRQRPR[NMeL]SHKGP[Nle][Aib][Phe(4-Br)]-OH) | 43 | 119 | 2600 |
| 0.02 | – | 0.0501 | 0.43 | 0.49 | -2.57 | 0.03 | CSCC[C@H](NC(=O)[C@@H]1CCCN1C(=O)CNC(=O)[C@H](CCCCN)NC(=O)[C@H](Cc1c[nH]cn1)NC(=O)[C@H](CO)NC(=O)[C@H](CC(C)C)NC(=O)[C@H](CCCNC(=N)N)NC(=O)[C@@H]1CCCN1C(=O)[C@H](CCCNC(=N)N)NC(=O)[C@H](CCC(N)=O)NC(=O)[C@H](CCCNC(=N)N)NC(=O)[C@H](CCCNC(=N)N)NC(=O)[C@H](Cc1ccccc1)NC(=O)[C@@H](N)CCCCN)C(=O)N1CCCC1C(=O)N[C@@H](Cc1ccccc1)C(=O)O (stereo not given in full) | 17 | 30 | 1020 |
| 27 | 2.51 | 0.55 | 0.06 | 0.11 | -1.45 | 2.8 | CCCC[C@H](NC(=O)[C@@H]1CCCN1C(=O)CNC(=O)[C@H](CCCCN)NC(=O)[C@H](Cc1c[nH]cn1)NC(=O)[C@H](CO)NC(=O)[C@H](CC(C)C)N(C)C(=O)[C@H](CCCNC(=N)N)NC(=O)[C@@H]1CCCN1C(=O)[C@H](CCCNC(=N)N)NC(=O)[C@H](CCC(N)=O)NC(=O)[C@H](CCCNC(=N)N)NC(=O)[C@H](CCCNC(=N)N)NC(=O)[C@H](Cc1ccccc1)NC(=O)[C@H](CCCCN)NC(=O)CCOCCOCCOCCOCCOCCOCCOCCNC(=O)OCC1c2ccccc2-c2ccccc21)C(=O)NC(C)(C)C(=O)N[C@@H](Cc1ccc(Br)cc1)C(=O)O ({Fmoc-PEG7}-KFRRQRPR[NMeL]SHKGP[Nle][Aib][Phe(4-Br)]-OH) | 47 | 90 | 2050 |
